Six compounds from the NIST ThermoML archive (doi:10.1021/acs.jced.8b00585) can be followed below.

For this data set the following is noted: Liquid; for Critical pressure: Direct measurement; for Critical temperature: Visual observation in an unstirred cell.

± gives the expanded uncertainty stated by the source.

For `CCCCO` [butan-1-ol], the Critical pressure stood at 4406 ± 22 kPa and the Critical temperature is 563 ± 0.4 K.

As for `CCCCCCCCCC` [decane], the Critical pressure is reported as 2106 ± 15 kPa and the Critical temperature is on record as 617.7 ± 0.4 K.

As to `CCCCCCC` [heptane], the Critical pressure is given as 2736 ± 17 kPa and the Critical temperature came to 540.1 ± 0.4 K.

Consider `CCCCCC` [hexane], for which the Critical pressure was 3033 ± 18 kPa and the Critical temperature was 507.8 ± 0.4 K.

On to `CCCCCCCCC` [nonane], for which the Critical pressure is recorded as 2278 ± 16 kPa and the Critical temperature is 594.5 ± 0.4 K.

For the compound `CCCCCCCC` [octane], the Critical pressure was found to be 2496 ± 16 kPa and the Critical temperature is reported as 568.9 ± 0.4 K.
